From ChEMBL document CHEMBL5137130, “Highly N-Methylated Peptides from the Antarctic Sponge Inflatella coelosphaeroides Are Active against Plasmodium falciparum” (J Nat Prod, 2022) come the findings set out here.

The structures appear in SMILES notation. Where a SMILES comes first, the peptide text is derived from it. [ ]: non-standard residue; d: D form. The star is where a group is joined. Phe(Nα-CONH2) = NC(=O)N[C@@H](Cc1ccccc1)C(=O)*; NMeI = CC[C@H](C)[C@H](NC)C(=O)O; X1 = CN(/C=C\c1c[nH]c2ccccc12)*; NMeL = CN[C@@H](CC(C)C)C(=O)O; NMeV = CN[C@H](C(=O)O)C(C)C; NMeA = CN[C@@H](C)C(=O)O; For = O=C*

Data set [1] can be described thus: Cytotoxicity against mouse J774 cells assessed as reduction in cell viability incubated for 68 hrs by CellTiter96 Aqueous One Solution Cell Proliferation Assay. In kind it is toxicity, cell-based.
Data set [2] relates to Plasmodium falciparum. Description: Antimalarial activity against blood stage chloroquine-sensitive Plasmodium falciparum NF54 assessed as reduction in parasite growth incubated for 72 hrs by SYBR Green dye based fluorescence assay. In kind it is functional, organism-based. The settings on record: NF54, 72 h.
In data set [3] the test system is Plasmodium falciparum. Description: Antimalarial activity against blood stage chloroquine-resistant Plasmodium falciparum Dd2 assessed as reduction in parasite growth incubated for 72 hrs by SYBR Green dye based fluorescence assay. The settings on record: Dd2, 72 h. In kind it is functional, organism-based.
Data set [4] relates to Plasmodium falciparum. Put plainly: Antimalarial activity against blood stage chloroquine-sensitive Plasmodium falciparum 3D7 assessed as reduction in parasite growth incubated for 72 hrs by SYBR Green dye based fluorescence assay. In kind it is functional, organism-based. The conditions noted are these: 3D7, 72 h.

With `CC[C@H](C)[C@@H](C(=O)N(C)[C@@H](C)C(=O)N(C)[C@H](C(N)=O)C(C)C)N(C)C(=O)[C@H]([C@@H](C)CC)N(C)C(=O)[C@H](C)N(C)C(=O)[C@H](C(C)C)N(C)C(=O)[C@H](C)N(C)C(=O)[C@@H](NC(C)=O)C(C)C` (Ac-V[NMeA][NMeV][NMeA][NMeI][NMeI][NMeA][NMeV]-NH2), the concentration for half-maximal inhibition (IC50) at 68 h in data set [1] was greater than 20 µM. In addition, the IC50 with Plasmodium falciparum [2], in the data set with Plasmodium falciparum [3] and in the data set on Plasmodium falciparum [4] was greater than 10 µM throughout.
On to `CNC(=O)[C@H](C(C)C)N(C)C(=O)[C@H](C(C)C)N(C)C(=O)[C@H](C(C)C)N(C)C(=O)[C@H](C)N(C)C(=O)[C@H](C)N(C)C(=O)[C@H](CC(C)C)N(C)C(=O)[C@H](C(C)C)N(C)C(=O)[C@H](Cc1ccccc1)NC=O` (For-F[NMeV][NMeL][NMeA][NMeA][NMeV][NMeV][NMeV]-NHMe), for which, in data set [1], the 50% inhibitory concentration (IC50) at 68 h was greater than 20 µM. For the same compound, the IC50 in the data set on Plasmodium falciparum [2] stood at 3.73 µM; in the data set on Plasmodium falciparum [3], 1.07 µM; in the data set on Plasmodium falciparum [4], 2.52 µM.
For `CC[C@H](C)[C@@H](C(=O)NC)N(C)C(=O)[C@H](C)N(C)C(=O)[C@H](C(C)C)N(C)C(=O)[C@H](C(C)C)N(C)C(=O)[C@H](C)N(C)C(=O)[C@H](C(C)C)N(C)C(=O)[C@H](C(C)C)N(C)C(=O)[C@H](C)N(C)C(=O)[C@H](C)NC(C)=O` (Ac-A[NMeA][NMeV][NMeV][NMeA][NMeV][NMeV][NMeA][NMeI]-NHMe), in that order: greater than 20 µM, greater than 10 µM, greater than 10 µM and greater than 10 µM.
For `CC[C@H](C)[C@@H](C(N)=O)N(C)C(=O)[C@H](C(C)C)N(C)C(=O)[C@H](CC(C)C)N(C)C(=O)[C@H](Cc1ccccc1)N(C)C(=O)[C@H](Cc1ccccc1)NC=O`, in that order: greater than 20 µM, 2.61 µM, 1.72 µM and 2.1 µM.
In the case of `CC[C@H](C)[C@@H](C(=O)N(C)/C=C\c1c[nH]c2ccccc12)N(C)C(=O)[C@H](C(C)C)N(C)C(=O)[C@H](C(C)C)N(C)C(=O)[C@H](CC(C)C)N(C)C(=O)[C@@H]1CCCN1C(=O)[C@H](Cc1ccccc1)NC(=O)[C@H](Cc1ccccc1)NC(C)=O` (Ac-FFP[NMeL][NMeV][NMeV][NMeI]-X1), the 50% inhibitory concentration (IC50) at 68 h in data set [1] was greater than 20 µM. The half-maximal inhibitory concentration (IC50) in the data set on Plasmodium falciparum [2] was found to be 3.93 µM; with Plasmodium falciparum [3], 3.3 µM; with Plasmodium falciparum [4], 8.65 µM.
On to `CNC(=O)[C@H](C(C)C)N(C)C(=O)[C@H](C(C)C)N(C)C(=O)[C@H](C(C)C)N(C)C(=O)[C@H](C)N(C)C(=O)[C@H](C)N(C)C(=O)[C@H](CC(C)C)N(C)C(=O)[C@H](C(C)C)N(C)C(=O)[C@H](Cc1ccccc1)NC(N)=O` ({Phe(Nα-CONH2)}-[NMeV][NMeL][NMeA][NMeA][NMeV][NMeV][NMeV]-NHMe), for which the IC50 at 68 h in data set [1] was greater than 20 µM. Also, the IC50 in the data set on Plasmodium falciparum [2] is 3.05 µM; in the data set on Plasmodium falciparum [3], 2.02 µM; in the data set with Plasmodium falciparum [4], greater than 10 µM.
`CC[C@H](C)[C@@H](C(=O)N(C)[C@H](C(=O)NC)[C@@H](C)CC)N(C)C(=O)[C@H](C(C)C)N(C)C(=O)[C@H](C)N(C)C(=O)[C@H](C(C)C)N(C)C(=O)[C@H](C(C)C)N(C)C(=O)[C@@H](NC=O)C(C)C` (For-V[NMeV][NMeV][NMeA][NMeV][NMeI][NMeI]-NHMe): the IC50 at 68 h in data set [1] was greater than 20 µM. Moreover, the half-maximal inhibitory concentration (IC50) is greater than 10 µM with Plasmodium falciparum [2], 4.37 µM in the data set on Plasmodium falciparum [3] and greater than 10 µM with Plasmodium falciparum [4].

The term IC50 denotes the concentration that inhibits the measured activity by half.
